The results in this text go back to patent publication US12054744B2, “NK cells exhibiting an adaptive phenotype and methods for preparing and for using” (Regents of the University of Minnesota, priority 2015, dated 2024).

In the assay the test system is TIGIT. In words: Flow cytometry of TIGIT and other receptors on NK cells. To be noted: cultured overnight; IL-15 10 ng/mL alone, or additional anti-CD16 1 μg/mL. The assay is classed as cell-based, human. As for the experimental part:
FIG. 11A. Purified NK cells from healthy blood donors were cultured before staining in the absence or presence of IL-15 (10 ng/mL) alone or with the additional stimulation of IL-12 (10 ng/mL) and IL-18 (100 ng/mL) for 18 hours or with stimulation with anti-CD16 (1 μg/mL) for 6 hours. One of four independent experiments is shown. NK cells were cultured with autologous MDSCs or freshly isolated monocytes at a 2:1 ratio in presence of IL-15 (10 ng/mL) for 5 days. Cells were stimulated with anti-CD16 six hours prior to analysis. Representative histograms for DNAM-1 (FIG. 11B) and TIGIT expression (FIG. 11C) and aggregate data for TIGIT expression (n=8) are shown as mean fluorescence intensity (MFI)±SEM. Two-Way ANOVA was used for statistical analysis. FIG. 11D. NK cells before and after co-culture with monocytes or MDSC were analyzed for co-expression of DNAM-1 and TIGIT. Representative data is shown of 3 independent experiments and 7 replicates. […]
Purified NK cells or MDS PBMC (FIG. 17) cultured with monocytes or MDSCs for different time points and with different stimuli were resuspended in staining buffer (PBS containing 0.5% human AB serum) and stained with fluorochrome-conjugated antibodies (Table IV). […] All cells were acquired by LSRII and analyzed by FlowJo. […]

In the case of “IL-15: cytokine in culture medium, low-dose 1 ng/mL or high-dose 10 ng/mL”, the “TIGIT expression on purified NK cells” value is on record as “slighted upregulated”.
